# Entries after “also recorded” stand apart in the source; their conditions may differ.
# What was measured:
# Type in all cases: in vivo
# [1] = tested on: glial cells; experiment: Glial cell (astrocyte) activation in brain of DM/HC pig model (GFAP IHC); conditions: DM/HC pigs treated with Lp-PLA2 inhibitor, vs non-treated
# Description: Animal model: A diabetic/diabetic hypercholestrolemic pig model (DM/HC) was developed that mimics human-like atherosclerosis. Farm pigs weighing 25-30 kg and aged ∼4 months were made diabetic with a single intravenous injection of 125 mg/kg of streptozotocin (Sicor Pharmaceuticals, Irvine, CA). After stabilization for 1-2 weeks, the animals with elevated levels of plasma glucose (>150 mg/dl) were fed with atherogenic (high-fat) diet as shown in Table 1 (Animal Specialties, Quakertown, PA) to achieve a cholesterol level of approximately 250-800 mg/dl. Table 1. Diet for 2.0% cholesterol diet the components are: […]
# Two diabetic/hypercholesterolemic groups were evaluated: 1. […] In addition blood cholesterol levels were maintained between 300 and 800 mg/dl in experimental animals, this range having been determined to provide a better test model. Blood cholesterol levels were monitored in all animals on a bimonthly basis, as shown in Table 4 and adjustments were made to the fat content of the feed accordingly, as shown in Table 2. […]
# [2] = tested on: Abeta-42; experiment: Abeta-42 accumulation in brain of DM/HC pig model (IHC); conditions: DM/HC pigs
# Description: (§1) Animal model: A diabetic/diabetic hypercholestrolemic pig model (DM/HC) was developed that mimics human-like atherosclerosis. Farm pigs weighing 25-30 kg and aged ∼4 months were made diabetic with a single intravenous injection of 125 mg/kg of streptozotocin (Sicor Pharmaceuticals, Irvine, CA). After stabilization for 1-2 weeks, the animals with elevated levels of plasma glucose (>150 mg/dl) were fed with atherogenic (high-fat) diet as shown in Table 1 (Animal Specialties, Quakertown, PA) to achieve a cholesterol level of approximately 250-800 mg/dl. Table 1. Diet for 2.0% cholesterol diet the components are:
# (§2) At one month after stabilization of choleresterol at 250-800mg/dl, the animals were randomized into two experimental groups, DM/HC (hyperglycemia and hypercholesterolemia) group with no treatment and treatment group (10 mg/kg/day of SB-480848, also referred to as 1-(N-(2-(diethylamino)ethyl)-N-(4-(4-trifluoromethylphenyl)benzyl)-aminocarbonylmethyl)-2-(4-fluorobenzyl)thio-5,6-trimethylenepyrimidin-4-one). The animals were sacrificed at 6-month after the randomization. The animal protocol has been approved by the Institutional Animal Care and Use Committee of University of Pennsylvania.
# (§3) Two diabetic/hypercholesterolemic groups were evaluated: 1. DM/HC group and 2. DM/HC animals receiving Lp-PLA2 inhibitors. The experiments included: the control group (DM/HC group - 17 pigs) and the experimental group (DM/HC animals receiving LP-PLA2 inhibitors - 20 pigs). In addition blood cholesterol levels were maintained between 300 and 800 mg/dl in experimental animals, this range having been determined to provide a better test model. Blood cholesterol levels were monitored in all animals on a bimonthly basis, as shown in Table 4 and adjustments were made to the fat content of the feed accordingly, as shown in Table 2. The cholesterol and lard percent were in the range of 0.5-2% and 10-25%, respectively, and all animals received feed that contained cholesterol and lard concentration within that range. Blood samples were obtained at baseline, 1 month, 3 months, and 6 months. Less than 1 ml/kg of blood were obtained each time. At the bimonthly blood cholesterol levels tests, levels of total cholesterol, LDL, HDL, VLDL and triglycerides, blood glucose, Lp-PLA2 and […] (PBMCs) were tested (see Table 4).
# (§4) Daily dosing began on Day 29, at which time each test animal was given a daily dose of 10 mg/kg SB-480848 (given as bolus equivalent in dog food). Animals were NPO from midnight the night before. Animals were euthanized on Day 196 and tissues harvested immediately.
# (§5) Brain tissue preparation. The entire brain was removed within one hour after animals were euthanized. The right hemisphere was fixed in 10% formalin for at least one week. […]
# [3] = tested on: blood brain barrier (BBB); experiment: BBB leakage in brain of DM/HC pig model (IHC for pig immunoglobulin); conditions: DM/HC pigs
# Description: as §1, §2, §3, §4, §5
# [4] = Body weight and behaviour observed during the study in DM/HC pig model; conditions: DM/HC pigs
# Description: as §1, §2, §3
# Domestic farm pigs, Yorkshire boars, ranging in weight between 25-35 kg were purchased from a local farm and placed in indoor housing under the care of a veterinarian. They were castrated 3-5 days in advance of the study start date. Test pigs were made diabetic by infusing one dose of streptozocin (125 mg/kg) IV in a period of 30 min. […] The blood glucose was measured using a glucometer every day before feeding for the first 14 days and then once a week. […]
# [5] = 10 mg/kg/day SB-480848, n=6, vs DM/HC no treatment, 10 mg/kg/day
# [6] = 10 mg/kg/day SB-480848, vs DM/HC no treatment
# [7] = during the study period, compared to control non-treated animals
smiles,measurement,setting,value
"CCN(CC)CCN(Cc1ccc(-c2ccc(C(F)(F)F)cc2)cc1)C(=O)Cn1c(SCc2ccc(F)cc2)nc(=O)c2c1CCC2 [Lp-PLA2 inhibitor, 1-(N-(2-(diethylamino)ethyl)-N-(4-(4-trifluoromethylphenyl)benzyl)-aminocarbonylmethyl)-2-(4-fluorobenzyl)thio-5,6-trimethylenepyrimidin-4-one]",activation of glial cells,[1],less activation of glial cells
same,sick neurons,"[2]; 10 mg/kg/day SB-480848, compared with non-treated animals",rarely observed
same,neuronal Abeta-42 immunoreactivity,[2]; [5],prevents Abeta-42 accumulation in neurons; also recorded: no neuronal Abeta-42 immunoreactivity
same,Abeta42 accumulation in vascular SMCs,[2]; [6],prevented Abeta42 accumulation in vascular SMCs
same,cerebrovascular amyloidosis (arterial Abeta-42 immunostaining),"[2]; 10 mg/kg/day SB-480848, vs DM/HC no treatment, 10 mg/kg/day",little or no arterial Abeta-42 immunostaining; also recorded: minimized cerebrovascular amyloidosis
same,BBB leakage,[3]; [5],prevents BBB leakage; also recorded: negligible
same,Ig binding to neurons,[3]; [6],no Ig binding to neurons
same,Ig leakage from blood vessels,[3]; [6],no Ig leakage from blood vessels
same,dendrite collapse,[3]; [6],no dendrite collapse
same,weight,"[4]; 10 mg/kg/day SB-480848, end of study, from a baseline of 26.9 kg, control animals 50.9 kg (baseline 30.3 kg)",62.5 kg
same,activity in the cage,[4]; [7],increased activity in the cage
same,response to feeding and handling,[4]; [7],tended to respond more alertly to feeding and handling
same,responsiveness to external stimuli,[4]; [7],more responsive to external stimuli

# — patent publication EP2977452A2, “METHODS OF TREATMENT AND PREVENTION OF NEURODEGENERATIVE DISEASES AND DISORDERS” (THOMAS JEFFERSON UNIVERSITY, priority 2007, dated 2008)
